# Test results reported in patent US8168656B2, “Indoleacetic acid and indenacetic acid derivatives as therapeutic agents with reduced gastrointestinal toxicity” (Vanderbilt University, priority 2009, dated 2012).
# Where a chain is given by its changes, count along the chain named.
# What was measured:
# Assay in all cases: Steady-state quenching of COX intrinsic fluorescence (apo-protein)
# Type in all cases: binding, murine
# mCOX-2^V349A = target: T1, mCOX-2^V349A (Mus musculus, UniProt Q05769, V335A)
# T1 construct: made in house; host or cells: Sf9 insect cells (baculovirus, pVL1393)
# T1 sequence (Q05769 18-604 V335A): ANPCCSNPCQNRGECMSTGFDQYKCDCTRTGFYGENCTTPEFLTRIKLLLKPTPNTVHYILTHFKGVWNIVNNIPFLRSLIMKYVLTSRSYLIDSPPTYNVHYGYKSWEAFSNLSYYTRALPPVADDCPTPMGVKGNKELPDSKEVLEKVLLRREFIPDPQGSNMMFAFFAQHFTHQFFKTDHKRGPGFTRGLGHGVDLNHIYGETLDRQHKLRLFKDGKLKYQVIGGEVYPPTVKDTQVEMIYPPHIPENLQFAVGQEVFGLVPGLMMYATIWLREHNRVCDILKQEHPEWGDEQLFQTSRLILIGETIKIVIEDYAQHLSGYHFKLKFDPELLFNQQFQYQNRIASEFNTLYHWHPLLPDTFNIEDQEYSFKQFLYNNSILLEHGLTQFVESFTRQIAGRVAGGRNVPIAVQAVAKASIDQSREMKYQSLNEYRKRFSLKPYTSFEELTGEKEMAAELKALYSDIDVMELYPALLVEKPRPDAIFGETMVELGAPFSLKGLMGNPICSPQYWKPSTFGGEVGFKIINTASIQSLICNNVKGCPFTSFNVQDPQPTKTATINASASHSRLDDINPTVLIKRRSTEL
# Protocol: (§1) Steady-state measurements were performed at 37° C. in a 3.5 ml fluorescence cuvette with continuous stirring. […] Data were collected over 240 or 360 seconds with 2-second integration times. The reversibility of quenching was analyzed in the same manner, with subsequent addition of 50 μM AA as competitor. The ligands were dissolved in DMSO before further dilution into buffer. The organic component in the buffer was below 0.4%.
# (§2) This assay provided a method to directly monitor the binding of INDO and DM-INDO to COXs. Various concentrations of INDO and DM-INDO were added to apo-proteins and the rate of fluorescence decrease was monitored over time. After the mixture reached equilibrium, 50 μM of AA was added as competitor to monitor the reversibility of binding. The kinetic data for quenching were analyzed in the same manner as those for inhibition. For clarity, the equilibrium constant for the first step of fluorescence quenching is referred to as Kd, and k2 and k−2 from the second step of quenching are represented by k′2 and k′−2, respectively.
# wild type mCOX-2 = target: T2, wild type mCOX-2 (Mus musculus, UniProt Q05769)
# T2 construct: made in house; host or cells: Sf9 insect cells (baculovirus, pVL1393)
# T2 sequence (Q05769 18-604): T1 sequence (Q05769 18-604 V335A) with A318V
# Protocol: as §1, §2
# mCOX-2^V349I = target: T3, mCOX-2^V349I (Mus musculus, UniProt Q05769, V335I)
# T3 construct: made in house; host or cells: Sf9 insect cells (baculovirus, pVL1393)
# T3 sequence (Q05769 18-604 V335I): T1 sequence (Q05769 18-604 V335A) with A318I
# Protocol: as §1, §2
# [1] = fluorescence increase from competition with 50 μM AA
smiles,measurement,setting,value
"COc1ccc2c(c1)c(CC(=O)O)cn2C(=O)c1ccc(Cl)cc1 [DM-INDO, 2-Des-methylindomethacin]",k′−2^b,mCOX-2^V349A; [1],0.046 ± 0.002 s⁻¹
same,Kd,mCOX-2^V349A; fluorescence quenching,1.4 ± 0.3 µM
same,k′2,mCOX-2^V349A; fluorescence quenching,0.17 ± 0.04 s⁻¹
same,k′−2,mCOX-2^V349A; fluorescence quenching (decay),0.045 ± 0.008 s⁻¹
same,k′−2^b,wild type mCOX-2; [1],0.007 ± 0.001 s⁻¹
same,Kd,wild type mCOX-2; fluorescence quenching,16 ± 9 µM
same,k′2,wild type mCOX-2; fluorescence quenching,0.16 ± 0.04 s⁻¹
same,k′−2,wild type mCOX-2; fluorescence quenching (decay),0.006 ± 0.002 s⁻¹
same,k′−2^b,mCOX-2^V349I; [1],0.005 ± 0.001 s⁻¹
same,Kd,mCOX-2^V349I; fluorescence quenching,12 ± 5 µM
same,k′2,mCOX-2^V349I; fluorescence quenching,0.09 ± 0.01 s⁻¹
same,k′−2,mCOX-2^V349I; fluorescence quenching (decay),0.003 ± 0.002 s⁻¹
